Assay results reported in patent US20180353429A1, “PRODUCT COMPRISING HYDROLIZED COLLAGEN AND AT LEAST ONE AMORPHOUS MICRONIZED DRUG, PROCESS FOR THE PREPARATION THEREOF AND RELATED USES IN MEDICAL FIELD” (S.B.M. S.r.l., priority 2015, published 2018).
Where two headings read alike, the source gives them in different places. Blank lines part the entries; values can stand above or below the compound they belong to.

How the values were obtained:
[1] = Pharmacokinetics of ASA given orally or sublingually in healthy volunteers (plasma ASA by LC-MS); format: in vivo; conditions: human, tablet; for AUC(0-t): read-out: AUC (0-24 h)
Experimental: The pharmaceutical composition obtained by co-grinding a micronized drug with gelatine was tested in healthy volunteers in order to verify whether the product, in its amorphized form, brought advantages from the standpoint of bioavailability and an enhanced clinical effectiveness associated with an improvement in the safety profile. These tests confirmed that the co-grinding process and simultaneous amorphization of ASA with collagen enables a better absorption of the drug without compromising its effectiveness.
In particular, the administration of the pharmaceutical composition of ASA+collagen after co-grinding in tablet form at doses of 50 and 100 mg given sublingually and orally in groups of 20 healthy volunteers brought about an increase in the plasma concentrations of ASA, determined using the LC-MS method, compared to the administration of equivalent doses of ASA in crystalline form administered sublingually or orally.

gastric mucosa = assay: Gastroerosive activity of oral ASA on the gastric mucosa of Wistar rats (ulcer index, histopathology); format: in vivo; conditions: ASA 400 mg/Kg oral
Experimental: In view of this, it was decided to test the effect of the micronization of ASA (400 mg/Kg) and co-grinding thereof with collagen through oral administration on the mucosa of Wistar rats weighing 210 g and compare it with the effects of the administration of ASA (400 mg/Kg) in its non-micronized form.
In particular, a calculation was made of the effect of ASA on the so-called “ulcer score”, according to a method that differentiates the damage due to the acute administration of high doses of ASA given orally into classes of severity which range from the absence of lesions to the maximum score, which is equivalent to ulcers equal to or greater than 6 mm. Furthermore, an analysis was made of the effects of ASA, in the two formulations used, on the histopathological damage of the gastric mucosa after periodic acid Schiff/Alcian blue staining of the histological samples taken from the animals after the two treatments (FIG. 7).

thromboxane B2 = assay: Plasma thromboxane B2 / urinary thromboxane metabolites after ASA in healthy volunteers; format: in vivo; conditions: plasma and urine ASA and urinary thromboxane metabolites, 7 days
Experimental: This effect was accompanied by a considerable therapeutic effectiveness, given that the plasma peak of thromboxane B2, a biomarker of the anti-aggregation effectiveness of ASA, came 1.5 hours earlier than with the crystalline form of the drug (FIG. 4). […] This fact was confirmed by examining both the plasma and urine concentrations of ASA and of the urinary metabolites of thromboxane after 7 days of administration (FIG. 5).

[2] = amorphized by co-grinding with β-cyclodextrin or other polymers; cited from earlier work

Cmax ([1]; ASA 50 mg oral): 269 ± 85.4 ng/mL | AUC(0-t) ([1]; ASA 50 mg oral): 532 ± 123 ng·h/mL | Cmax ([1]; ASA 50 mg sublingual): 314 ± 89.5 ng/mL | AUC(0-t) ([1]; ASA 50 mg sublingual): 675 ± 75.6 ng·h/mL | Cmax ([1]; ASA 100 mg oral): 460 ± 73.2 ng/mL | Cmax ([1]; ASA 100 mg sublingual): 543 ± 68.3 ng/mL
Compound: CC(=O)Oc1ccccc1C(=O)O [ASA n.m., acetylsalicylic acid]
Ulcer index (gastric mucosa; listed as NM-ASA): 36.12 ± 4.2 | Ulcer index (gastric mucosa; listed as non-micronized ASA): 36.12±4.2 | histopathological damage of the gastric mucosa (gastric mucosa; periodic acid Schiff/Alcian blue staining): degeneration of cells of the gastric mucosa

Compound: collagen
effects of collagen on its own (thromboxane B2): no significant effects

Compound: CC(=O)[O][Pt]([NH2])([Cl])([Cl])([NH]C1CCCCC1)[O]C(C)=O [JM216, bis-acetato-ammine-dichloro-cyclohexylamine-platinum (IV)]
water solubility [2]: greater water solubility
